In patent US11534457B2, “Use of dextran sulfate” (priority 2017, dated 2022):

Key:
[1] = tested on: MBP expression in human Schwann cells; experiment: Myelin basic protein (MBP) immunostaining; assay type: cell-based; settings: 48 h
Experimental: Neurons were cultured as 40,000 cells per well and Schwann cells 3,000 cells per. Cells were treated after 24 hours. The number of cells per well depended on the growth phenotype, proliferative capacity, etc.
Schwann cells growth medium was prepared by adding 10% of fetal bovine serum (FBS, PAA) to high-glucose DMEM and pre-warmed to 37° C. Cells were thawed in a 37° C. water bath for no longer than 2 min. Cells were gently transferred to a tube containing 10 ml of medium and centrifuged at 200 RCF for 5 min. Pellet was resuspended in 5 ml of medium and cells were counted with the Cellometer. 3,000 cells per well were seeded in previously coated 96-well plates. Cells were incubated at 37° C. with 5% CO2. Cells were allowed to settle for 24 hours before drug treatment.
LMW-DS was prepared in the culture media of choice for each cell line and added to the respective wells in the doses 0.01 and 0.1 mg/ml. For cell survival assays cells were analyzed after 24 and 48 hours in eight identical wells/dose/time point. Differentiation and protein expression assay was analyzed after 48 hours, also in octuplicates.
Cells were fixated in the wells. […]
The Acumen cytometer allows the direct cytometric analysis of attached cells without prior detachment. […] The protein content of the cells can also be directly measured and expressed as either ‘total protein content’ or ‘mean protein content’.

[2] = target: protein-protein interaction between oligomeric amyloid-β and PrP^c (Homo sapiens, UniProt P04156); assay type: binding
[3] = tested on: BT system [CD19^+ B cells and PBMC+(a-IgM and TCR ligands)]; experiment: BioMAP BT system; assay type: cell-based, Human
Source text: In this study LMW-DS was characterized by profiling in the BioMAP® Diversity PLUS panel. The BioMAP® panel consists of human primary cell-based systems designed to model different aspects of the human body in an in vitro format. The 12 systems in the BioMAP® Diversity PLUS panel (Table 32) allow test agent characterization in an unbiased way across a broad set of systems modeling various human disease states. The BioMA®P systems are constructed with one or more primary cell types from healthy human donors, with stimuli, such as cytokines or growth factors, added to capture relevant signaling networks that naturally occur in human tissue or pathological conditions. Vascular biology is modeled in both a Th1 (3C system) and a Th2 (4H system) inflammatory environment, as well as in a Th1 inflammatory state specific to arterial smooth muscle cells (CASM3C system). Additional systems recapitulate aspects of the systemic immune response including monocyte-driven Th1 inflammation (LPS system) or T cell stimulation (SAg system), chronic Th1 inflammation driven by macrophage activation (IMphg system) and the T cell-dependent activation of B cells that occurs in germinal centers (BT system). The BE3C system (Th1) and the BF4T system (Th2) represent airway inflammation of the lung, while the MyoF system models myofibroblast-lung tissue remodeling. Lastly, skin biology is addressed in the KF3CT system modeling Th1 cutaneous inflammation and the HDF3CGF system modeling wound healing.
Four concentrations of LMW-DS (150 nM, 440 nM, 1.3 μM, 4 μM) were investigated in the BioMAP® Diversity PLUS panel by Eurofins.
Cell types and stimuli used in each system are as follows: 3C system [HUVEC+(IL-1β, TNFα and IFNγ)], 4H system [HUVEC+(IL-4 and histamine)], LPS system [PBMC and HUVEC+LPS (TLR4 ligand)], SAg system [PBMC and HUVEC+TCR ligands], BT system [CD19^+ B cells and PBMC+(a-IgM and TCR ligands)], BF4T system [bronchial epithelial cells and HDFn+(TNFα and IL-4)], BE3C system [bronchial epithelial cells+(IL-1β, TNFα and IFNγ)], CASM3C system [coronary artery smooth muscle cells+(IL-1β, TNFα and IFNγ)], HDF3CGF system [HDFn+(IL-1β, TNFα, IFNγ, EGF, bFGF and PDGF-BB)], KF3CT system [keratinocytes and HDFn+(IL-1β, TNFα, IFNγ and TGFβ)], MyoF system [differentiated lung myofibroblasts+(TNFα and TGFβ)] and /Mphg system [HUVEC and M1 macrophages+Zymosan (TLR2 ligand)].
Systems are derived from either single cell types or co-culture systems. Adherent cell types are cultured in 96 or 384-well plates until confluence, followed by the addition of PBMC (SAg and LPS systems). The BT system consists of CD19+ B cells co-cultured with PBMC and stimulated with a BCR activator and low levels of TCR stimulation. Test agents prepared in either DMSO (small molecules; final concentration 0.1%) or PBS (biologics) are added at the indicated concentrations 1-hr before stimulation, and remain in culture for 24-hrs or as otherwise indicated (48-hrs, MyoF system; 72-hrs, BT system (soluble readouts); 168-hrs, BT system (secreted IgG)). Each plate contains drug controls (e.g., legacy control test agent colchicine at 1.1 μM), negative controls (e.g., non-stimulated conditions) and vehicle controls (e.g., 0.1% DMSO) appropriate for each system. Direct ELISA is used to measure biomarker levels of cell-associated and cell membrane targets. Soluble factors from supernatants are quantified using either HTRF® detection, bead-based multiplex immunoassay or capture ELISA. Overt adverse effects of test agents on cell proliferation and viability (cytotoxicity) are detected by sulforhodamine B (SRB) staining, for adherent cells, and alamarBlue® reduction for cells in suspension. For proliferation assays, individual cell types are cultured at subconfluence and measured at time points optimized for each system (48-hrs: 3C and CASM3C systems; 72-hrs: BT and HDF3CGF systems; 96-hrs: SAg system). […]

## low molecular weight dextran sulfate [LMW-DS]
[1]; 0.01 and 0.1 mg/ml
  MBP expression: significantly increased
[1]
  size of MBP-positive cells vs control: larger
[2]
  Competable binding (%): 85 ± 4%
  Hill coefficient: 1.00 ± 0.21
  IC50: 0.42 ± 0.16 µg/mL
  competition for the protein-protein interaction (in words): in a concentration dependent manner as did LMW-DS
[3]
  IL-17A: decreased
  IL-17F: decreased
  antiproliferative effects on B cells: without any antiproliferative effects
  sIgG: decreased
[3]; BT system
  Decreased biomarker activity: sIgG, sIL-17F
  Increased biomarker activity: sIL-17A
